For this experiment, the target named is T1, FXR (Homo sapiens, UniProt Q96RI1).
T1 construct: using a full length FXR on a natural response element; expressed in transfected cells
T1 sequence (Q96RI1 1-486): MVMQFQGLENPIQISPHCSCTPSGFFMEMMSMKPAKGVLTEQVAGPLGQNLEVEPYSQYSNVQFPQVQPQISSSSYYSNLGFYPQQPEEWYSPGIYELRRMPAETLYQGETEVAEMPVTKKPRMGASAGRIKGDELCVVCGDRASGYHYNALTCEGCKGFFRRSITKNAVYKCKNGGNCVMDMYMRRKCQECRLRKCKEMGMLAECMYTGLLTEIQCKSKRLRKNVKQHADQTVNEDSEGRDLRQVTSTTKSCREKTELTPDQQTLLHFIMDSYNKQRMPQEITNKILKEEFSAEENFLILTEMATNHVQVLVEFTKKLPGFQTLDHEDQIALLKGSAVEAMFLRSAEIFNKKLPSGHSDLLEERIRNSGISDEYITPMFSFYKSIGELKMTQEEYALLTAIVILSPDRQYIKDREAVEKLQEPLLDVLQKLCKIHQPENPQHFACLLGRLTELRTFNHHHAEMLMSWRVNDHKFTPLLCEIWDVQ
Nature of the experiment: cell-based transcription assay, FXR responsive promoter linked to a luciferase reporter. On the set-up: RE: scale not given here. The following applies: for RE: RE not defined in the source. The source says:
In addition to ensuring that only cell permeable compounds were selected for further optimization, this approach allows for the detection of FXR activation in a natural system (i.e., correct folding of the protein and in the presence of a complete compliment of co-activators and co-repressors).
The feasibility of creating high throughput screens (XIS) for ORs was explored using FXR as a candidate orphan receptor (OR) with a known activator, chenodeoxycholic acid (CDCA) as a ligand. The screen is based on the co-transfection of a full-length receptor with the reporter vector containing a natural hormone response element under a minimal eukaryotic promoter. […] Using this 384-well format, the high throughput screening (HTS) approach to FXR as a candidate OR was employed. […] A central question in the feasibility studies is whether this library is suitable for screening for nuclear receptor ligands. Samples of this library were first reformatted into a 384-well format and then subjected to the FXR cell-based assays described above and assessed for FXR-mediated transcriptional activity. Cells were exposed to approximately 10 μM of sample for 18 hrs prior to washing and luciferase analysis.
EC50 values were determined with Prism 3.0 software via the activity of the subject compound in the previously described cell based assay.

The mark [1] stands for this setting: Tables 1-15, FXR activation, cell-based reporter assay, read-out: EC50.
Setting [2] is: library screening hits and leads, read-out: activity (EC50).
[3] abbreviates: FXR activation, cell-based reporter assay, read-out: EC50.

SMILES strings stand for the structures. Values joined by “and” are separate entries in the source; they are usually repeats but may differ in a detail not shown here. Equal values may be shown once. Read-outs that look alike come from different tables or passages of the source.

The compound `COC(=O)/C=C/c1cccc(N(Cc2ccc(/C=C/c3ccc(C)cc3)cc2)C(=O)C(C)C)c1` [Compound 175] had an RE (Tables 1-15) of 0.37. `COC(=O)/C=C/c1cccc(N(Cc2ccc(/C=C/c3cccc(F)c3)cc2)C(=O)C(C)C)c1` [Compound 202]: the EC50 under setting [1] came to 71 nM. The RE (Tables 1-15) amounted to 1.33. Further, the “FXR activation (in words)” value (cell-based reporter assay) was “excellent activity”. Regarding `COC(=O)/C=C/c1cccc(N(Cc2ccc(-c3cccc(C)c3)cc2)C(=O)C2CCCCC2)c1` [Compound 238], the EC50 under setting [1] came to 109 nM. The same compound yielded an RE (Tables 1-15) of 1.43. The “FXR activation (in words)” value (cell-based reporter assay) is “excellent activity”. Regarding `COC(=O)/C=C/c1cccc(N(Cc2ccc(-c3cccc(OC(F)(F)F)c3)cc2)C(=O)C(C)C)c1` [Compound 254], under setting [1], the concentration for a half-maximal effect (EC50) was found to be 247 nM. Under “Tables 1-15”, this compound displayed an RE of 0.59.

For `COC(=O)/C=C/c1cccc(N(Cc2ccc(-c3ccc(C)cc3)cc2)C(=O)C2CCCCC2)c1` [Compound 235], the EC50 under setting [1] came out at 26 nM. Also, for the setting “Tables 1-15”, the RE was 1.38. In addition, the “FXR activation (in words)” value (cell-based reporter assay) is “excellent activity”. In the case of `COC(=O)C=Cc1cccc(N(Cc2ccc(C=CC(=O)OC(C)(C)C)cc2OC(=O)c2ccccc2)C(=O)C2CCCCC2)c1` [Compound 165], under setting [1], the EC50 was over 1000 nM. Under “Tables 1-15”, the RE was 0.16. Consider `COC(=O)/C=C/c1cccc(N(Cc2ccc(-c3ccc(SC)cc3)cc2)C(=O)C(C)C)c1` [Compound 216], for which the EC50 under setting [1] came out at 51 nM. For the setting “Tables 1-15”, this compound registered an RE of 0.98. For the same compound, for the setting “cell-based reporter assay”, the “FXR activation (in words)” value was “excellent activity”.

As to `COC(=O)/C=C/c1cccc(N(Cc2ccc(-c3ccc(OC(F)(F)F)cc3)cc2)C(=O)C2CCCCC2)c1` [Compound 250], the EC50 under setting [1] was 264 nM. This compound also displayed an RE (Tables 1-15) of 1.04.

In the case of `COC(=O)/C=C/c1cccc(N(Cc2ccc3c(c2OC)OC(C)(C)C=C3)C(=S)C2CC2)c1` [Compound 83], the “FXR activation (in words)” value (cell-based reporter assay) was “inactive”. Regarding `COc1c(CN(C(=O)C2CCCCC2)C(C)C)ccc2c1OC(C)(C)C=C2` [Compound 19], the EC50 under setting [2] lay in the range of 5000 to 10000 nM. On to `COc1c(CN(C(=O)C2CC2)c2cccc(/C=C/C#N)c2)ccc2c1OC(C)(C)C=C2` [Compound 34], for which the “FXR activation (in words)” value (cell-based reporter assay) is “inactive”. As for `CCOC(=O)C=Cc1ccc(CN(C(=O)C2CCCCC2)c2cccc(C=CC(=O)OC)c2)cc1` [Compound 151], the EC50 under setting [1] is over 1000 nM. The compound also came in with an RE (Tables 1-15) of 1.14. Turning to `COC(=O)C=Cc1cccc(N(Cc2ccc(CCC(=O)OC(C)(C)C)cc2)C(=O)C2CCCCC2)c1` [Compound 159], the 50% effective concentration (EC50) under setting [1] worked out at 240 nM. The RE (Tables 1-15) turned out to be 1.56. The “FXR activation (in words)” value (cell-based reporter assay) is recorded as “two-fold decrease in potency from the parent compound 105”.

For `COC(=O)/C=C/c1cccc(N(Cc2ccc(/C=C/c3ccccc3)cc2)C(=O)C(C)C)c1` [Compound 198], under setting [1], the EC50 came to 65 nM. Besides, the RE (Tables 1-15) is given as 1.33. For the setting “cell-based reporter assay”, the “FXR activation (in words)” value is given as “excellent activity”. `COC(=O)C=Cc1cccc(N(Cc2ccc(C=Cc3scnc3C)cc2)C(=O)C2CCCCC2)c1` [Compound 210]: the concentration giving a half-maximal response (EC50) under setting [3] was 227 nM. Also, the RE (Tables 1-15) is given as 0.53. On to `COC(=O)/C=C/c1cccc(N(Cc2ccc(-c3ccccc3)cc2)C(=O)C2CCCCC2)c1` [Compound 124], for which, under setting [3], the EC50 was 510 nM and 69 nM. The compound further yielded an RE (Tables 1-15) of 0.71. As for `COc1c(CN(C(=O)c2ccccc2C(=O)O)c2ccncc2)ccc2c1OC(C)(C)C=C2` [Compound 17], under setting [2], the EC50 was 5000 to 10000 nM. For `COC(=O)C=Cc1cccc(N(Cc2ccc(C=CC(=O)OC(C)(C)C)cc2OC(C)=O)C(=O)C2CCCCC2)c1` [Compound 164], the concentration giving a half-maximal response (EC50) under setting [1] was over 1000 nM. This compound also registered an RE (Tables 1-15) of 0.16. Turning to `COC(=O)C=Cc1cccc(N(Cc2ccc(-c3ccc(C(C)=O)s3)cc2)C(=O)C2CCCCC2)c1` [Compound 129], the EC50 worked out at 256 nM under setting [3] and 256 nM under setting [1]. The compound further showed an RE (Tables 1-15) of 1.48. On to `COC(=O)C=Cc1cccc(N(Cc2ccc(C=Cc3scnc3C)cc2)C(=O)NC(C)C)c1` [Compound 212], for which, under setting [1], the EC50 came out at 356 nM. For the same compound, the RE (Tables 1-15) is on record as 0.42. Take `COC(=O)/C=C/c1cccc(N(Cc2ccc(-c3ccc(N(C)C)cc3)cc2)C(=O)C2CCCCC2)c1` [Compound 259]: the EC50 under setting [3] is 25 nM. This compound also returned an RE (Tables 1-15) of 1.72. Also, the “FXR activation (in words)” value (cell-based reporter assay) is given as “excellent activity”.

`COc1c(CN(Cc2ccccc2)C(=O)C2CC2)ccc2c1OC(C)(C)C=C2` [Compound 23]: the EC50 under setting [2] is 5000 to 10000 nM. `COC(=O)/C=C/c1cccc(N(Cc2ccc(-c3ccc(C(C)(C)C)cc3)cc2)C(=O)C2CCCCC2)c1` [Compound 262]: the EC50 under setting [1] stood at 132 nM. The RE (Tables 1-15) came to 1.38. For `COC(=O)C=Cc1cccc(N(Cc2ccc(C=CC(=O)NCC(C)C)cc2)C(=O)C2CCCCC2)c1` [Compound 155], the EC50 under setting [1] is over 1000 nM. The compound also came in with an RE (Tables 1-15) of 1.85. For `COC(=O)/C=C/c1cccc(N(Cc2ccc(-c3ccccc3OC)cc2)C(=O)NC(C)C)c1` [Compound 220], the EC50 under setting [1] was determined as 4010 nM. Besides, the RE (Tables 1-15) is recorded as 0.09.

Turning to `COC/C=C/c1cccc(N(Cc2ccc3c(c2OC)OC(C)(C)C=C3)C(=O)C2CC2)c1` [Compound 33], the “FXR activation (in words)” value (cell-based reporter assay) is “capable of activating FXR to a significant extent”. On the same count and under the same terms, in the case of `COC(=O)C=Cc1cccc(N(Cc2ccc3c(c2OC)OC(C)(C)C(O)C3N2CCCCC2)C(=O)c2ccccc2)c1` (stereo not shown) [Compound 100] it was “did not improve the activity”. Regarding `CCOC(=O)COc1cc(C=CC(=O)OC(C)(C)C)ccc1CN(C(=O)C1CCCCC1)c1cccc(C=CC(=O)OC)c1` [Compound 167], under setting [1], the EC50 was over 1000 nM. The RE (Tables 1-15) was determined as 0.16.

`COC(=O)/C=C/c1cccc(N(Cc2cccc(Br)c2)C(=O)C2CCCCC2)c1` [Compound 113]: the EC50 under setting [1] is over 1000 nM. Further, the RE (Tables 1-15) is reported as 0.10. On to `COC(=O)C=Cc1cccc(N(Cc2ccc(C=CC(=O)OC(C)(C)C)cc2O)C(=O)C2CCCCC2)c1` [Compound 161], for which the EC50 under setting [1] was over 1000 nM. The compound further had an RE (Tables 1-15) of 0.12. For the compound `COC(=O)/C=C/c1cccc(N(Cc2ccc(-c3cc(Cl)ccc3OC)cc2)C(=O)NC(C)C)c1` [Compound 243], under setting [1], the EC50 turned out to be 3080 nM. The RE (Tables 1-15) came to 0.17. As for `COC(=O)C=Cc1cccc(N(Cc2ccc3c(c2OC)OC(C)(C)C(O)C3Sc2ccccc2)C(=O)c2ccccc2)c1` (stereo not shown) [Compound 98], under “cell-based reporter assay”, the “FXR activation (in words)” value is listed as “did not improve the activity”. Regarding `COC(=O)/C=C/c1cccc(N(C)Cc2ccc3c(c2OC)OC(C)(C)C=C3)c1` [Compound 79], for the setting “cell-based reporter assay”, the “FXR activation (in words)” value is “inactive”. For the compound `COc1c(CN(C(=O)CC(C)C)C(C)C)ccc2c1OC(C)(C)C=C2` [Compound 21], under setting [2], the EC50 fell in the range of 5000 to 10000 nM. On to `COc1cc(CN(C(=O)CC(C)C)c2ccccc2)cc2c1OC(C)(C)C=C2` [Compound 24], for which the EC50 under setting [2] lay within 5000 to 10000 nM. For the compound `COC(=O)/C=C/c1cccc(N(Cc2ccc(-c3ccc(C(C)(C)C)cc3)cc2)C(=O)NC(C)C)c1` [Compound 264], the EC50 under setting [1] is 262 nM. Also, where the note is “Tables 1-15”, the RE worked out at 1.02. As to `COC(=O)/C=C/c1cccc(N(Cc2ccc(-c3ccc(C)cc3)cc2)C(=O)C(C)C)c1` [Compound 236], the EC50 under setting [1] worked out at 118 nM. Moreover, the RE (Tables 1-15) was found to be 1.48. In addition, the “FXR activation (in words)” value (cell-based reporter assay) is reported as “excellent activity”. In the case of `COC(=O)/C=C/c1cccc(N(Cc2ccc(-c3cccc(OC(F)(F)F)c3)cc2)C(=O)NC(C)C)c1` [Compound 255], the concentration for a half-maximal effect (EC50) under setting [1] is over 10000 nM. Also, where the note is “Tables 1-15”, the RE is given as 0.09.

As for `COc1cc(CN(C(=O)Nc2ccccc2)c2ccccc2)cc2c1OC(C)(C)C=C2` [Compound 25], the EC50 under setting [2] fell in the range of 5000 to 10000 nM. For `COC(=O)/C=C/c1cccc(N(Cc2ccc(-c3c(OC)cccc3OC)cc2)C(=O)C(C)C)c1` [Compound 257], the concentration for a half-maximal effect (EC50) under setting [1] turned out to be 95 nM. This compound came in with an RE (Tables 1-15) of 0.10. The “FXR activation (in words)” value (cell-based reporter assay) is listed as “excellent activity”.

With `COC(=O)CCc1cccc(N(Cc2ccc(/C=C/C(=O)OC(C)(C)C)cc2)C(=O)C2CCCCC2)c1` [Compound 139], under setting [3], the EC50 was 274 nM. The RE result (Tables 1-15) was “RE^a = 1.38”. Turning to `COC(=O)C=Cc1cccc(N(Cc2ccc(C=Cc3ccccn3)cc2)C(=O)NC(C)C)c1` [Compound 209], the EC50 under setting [1] was 575 nM. Moreover, under “Tables 1-15”, the RE turned out to be 0.68. For the compound `COC(=O)/C=C/c1cccc(N(Cc2cccc(/C=C/C(=O)OC(C)(C)C)c2)C(=O)C2CCCCC2)c1` [Compound 107], the “FXR activation (in words)” value (cell-based reporter assay) is recorded as “only micromolar potency”.
